Measured values: patent publication US9193689B2, “3-aryl-5-substituted-isoquinolin-1-one compounds and their therapeutic use” (INSTITUTE OF CANCER RESEARCH: ROYAL CANCER HOSPITAL (THE), priority 2012, dated 2015)
Like-named read-outs stand apart in the source and are kept apart here.

Assays:
[1] = system: DLD1 cells; experiment: Long-Term Clonogenic Assay (DLD1 cells); type: cell-based
Experimental: Clonogenic Inhibition in DLD1 or HT55 Cells
In order to determine the efficacy of chronic dosing of putative TNKS inhibitors, long term clonogenic or ‘colony formation’ assays were carried out. This included the sparse seeding of cells in a 6-well dish followed by continuous dosing of cells over 12-14 days (depending on relative cell growth). Appropriate cell lines (DLD1 or HT55) were seeded at 500 cells/well in a 6-well dish in DMEM supplemented with FBS. […] Dosages were carried out in triplicate. Cell media containing compound or DMSO only was replenished every 48 hours. Termination of the assay included the fixation of cells with trichlororacetic acid (1 mL, 10% (v/v), Sigma Aldrich, cat. no. T6399) and incubation for 16 hours at 4° C. Fixed cells were then washed with water, allowed to dry and stained with sulforhodamine B solution (sulforhodamine B 0.05% (w/v), Sigma Aldrich cat. no. S1402, acetic acid 1% (v/v), Fisher Scientific, cat. no. A/0400/PB17)) for 12 hours at room temperature. The stain was then removed and the cells washed copiously with aqueous acetic acid (1% v/v) and allowed to dry.
The data was normalised to the DMSO control and was expressed as surviving fraction as a function of inhibitor dose.

[2] = system: Axin1 protein levels in DLD1 cells; experiment: Western Blotting for Direct and Downstream Targets of TNKS Inhibitors: Axin 1; type: cell-based;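 further: compound exposure 20 to 22 hours before lysis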
Experimental: DLD1 cells were assayed for the effect of putative Tankyrase1/2 inhibitors on TNKS1/2, Axin1/2 and β-catenin protein levels. […] Reduction of nuclear accumulation of β-catenin and ultimately, reduction of β-catenin/TCF/LEF transcriptional activation of Wnt target genes should correlate with loss of Wnt-luc reporter signal in the Wnt reporter assay.
DLD1 cells were seeded in a 6-well dish at 10000 cells/well in DMEM supplemented with 10% FBS. […] After washing in TBS-T, the membrane was probed with a species specific secondary antibody conjugated to HRP (1:5000, Pierce/ThermoFisher), washed again in TBS-T and reacted with chemiluminescent detection reagents (ECL, GE Healthcare, cat. no. RPN2109) followed by exposure to X-ray film (FujiFilm XR).

[3] = molecular target: TNKS1 (Homo sapiens, UniProt O95271); experiment: TNKS1/PARP Biochemical Assay (TNKS1)
[4] = system: TNKS stabilisation in HeLa, HT1080, HTC75 cells
Experimental: Cells were seeded, dosed and whole cell lysates were isolated and western blotted as described above. Primary antibodies included TNKS (1:1000, Santa Cruz Biotech, cat. no. SC8377).

[5] = system: Wnt activity in DLD1-Wnt-Luc cells; experiment: Wnt-Luciferase Reporter Assay
[6] = read-out: Wnt IC50, DLD1-Wnt-Luc cells

SMILES | Clonogenic SF50 (DLD1) [1] | stabilize Axin1 (Western blotting) [2] | IC50 [3] | stabilize TNKS (Western blotting) [4] | IC50 ([5]; read-out: Wnt IC50) | IC50 [5, 6]
CN1CCN(c2ccc(-c3cc4c(Cl)cccc4c(=O)[nH]3)cn2)CC1 [IQ-002-1] | < 2 µM | stabilize Axin1 | < 50 nM | stabilize TNKS |  | 
Cc1cccc2c(=O)[nH]c(-c3ccc(N4CCN(C)CC4)nc3)cc12 [IQ-003] | < 2 µM | stabilize Axin1 | 21 nM | stabilize TNKS | 12 nM | 
CN(C)CCN1CCN(c2ccc(-c3cc4c(Cl)cccc4c(=O)[nH]3)cn2)CC1 [IQ-019] | < 2 µM |  | < 50 nM |  |  | 
Cc1cccc2c(=O)[nH]c(-c3cnc(N4CCN(C)CC4)c(F)c3)cc12 [IQ-021] | < 2 µM |  | < 50 nM |  |  | 
Cc1cccc2c(=O)[nH]c(-c3cnc(N4CCNCC4)c(F)c3)cc12 [IQ-023] | < 2 µM |  | < 50 nM |  |  | 
O=c1[nH]c(-c2ccc(N3CCNCC3)nc2)cc2c(Cl)cccc12 [IQ-027] |  | stabilize Axin1 | < 50 nM | stabilize TNKS |  | 
Cc1cccc2c(=O)[nH]c(-c3ccc(CN4CCCC4)cc3)cc12 [IQ-036] |  | stabilize Axin1 | < 50 nM | stabilize TNKS |  | 
Cc1cccc2c(=O)[nH]c(-c3ccc(CN4CCCCC4)cc3)cc12 [IQ-037] |  | stabilize Axin1 | < 50 nM | stabilize TNKS |  | 
Cc1cccc2c(=O)[nH]c(-c3ccc(CN4CCN(C)CC4)cc3)cc12 [IQ-038] | < 2 µM |  |  | stabilize TNKS |  | 
CN1CCN(Cc2ccc(-c3cc4c(Cl)cccc4c(=O)[nH]3)cc2)CC1 [IQ-043] | < 2 µM |  | < 500 nM |  |  | 
Cc1cccc2c(=O)[nH]c(-c3ccc(C(C)N4CCN(C)CC4)cc3)cc12 (centres unmarked) [IQ-048] | < 2 µM |  | < 20 nM |  |  | 
Cc1cccc2c(=O)[nH]c(-c3ccc(CN4CCC(N(C)C)CC4)cc3)cc12 [IQ-053] |  |  |  | stabilize TNKS |  | 
Cc1cccc2c(=O)[nH]c(-c3ccc(CN4CCN(C)C(=O)C4)cc3)cc12 [IQ-054] | < 2 µM |  | < 20 nM |  |  | 
Cc1cccc2c(=O)[nH]c(-c3ccc(CN4CCN(C)CC4)nc3)cc12.O=CO [IQ-057] | < 2 µM |  | < 50 nM |  |  | 
Cc1cccc2c(=O)[nH]c(-c3ccc(CN4CCN(C(=O)NC(C)(C)C)CC4)cc3)cc12 [IQ-068, 4-[4-(5-methyl-1-oxo-1,2-dihydro-isoquinolin-3-yl)-benzyl]-piperazine-1-carboxylic acid tert-butylamide] | < 2 µM |  | < 50 nM |  |  | 
Cc1cccc2c(=O)[nH]c(-c3ccc(CN4CCC(O)CC4)cc3)cc12 [IQ-074, 3-[4-(4-Hydroxy-piperidin-1-ylmethyl)-phenyl]-5-methyl-2H-isoquinolin-1-one] | < 2 µM |  | < 50 nM |  |  | 
Cc1cccc2c(=O)[nH]c(-c3ccc(CN4C[C@@H]5C[C@H]4CN5)cc3)cc12 [IQ-086] | < 2 µM |  | < 20 nM |  |  | 
Cc1cccc2c(=O)[nH]c(-c3ccc(C(=O)N(C)C4CCN(C)CC4)cc3)cc12 [IQ-100, N-Methyl-4-(5-methyl-1-oxo-1,2-dihydro-isoquinolin-3-yl)-N-(1-methyl-piperidin-4-yl)-benzamide] |  | stabilize Axin1 | < 20 nM | stabilize TNKS |  | 
COCCN1CCN(C(=O)c2ccc(-c3cc4c(C)cccc4c(=O)[nH]3)cc2)CC1 [IQ-102] | < 2 µM | stabilize Axin1 | < 20 nM | stabilize TNKS |  | 
Cc1cccc2c(=O)[nH]c(-c3ccc(C(=O)N4CCC(N(C)C)CC4)cc3)cc12 [IQ-106] | < 2 µM |  | < 50 nM |  |  | 
Cc1cccc2c(=O)[nH]c(-c3ccc(S(=O)(=O)N4CCN(C)CC4)cc3)cc12 [IQ-121] | < 2 µM |  | < 50 nM |  |  | 
CNCCOc1ccc(-c2cc3c(C)cccc3c(=O)[nH]2)cc1 [IQ-127, 5-Methyl-3-[4-(2-methylamino-ethoxy)-phenyl]-2H-isoquinolin-1-one] | < 2 µM | stabilize Axin1 | < 50 nM | stabilize TNKS |  | 
CN(C)CCOc1ccc(-c2cc3c(F)cccc3c(=O)[nH]2)cc1 [IQ-129] | < 2 µM |  | < 50 nM |  |  | < 5000 nM
Cc1cccc2c(=O)[nH]c(-c3ccc(OCCN(C)C)cc3)cc12 [IQ-130] |  | stabilize Axin1 | 16 nM | stabilize TNKS | 165 nM | 
Cc1cccc2c(=O)[nH]c(-c3ccc(OCCN4CCOCC4)cc3)cc12 [IQ-133] |  | stabilize Axin1 | < 500 nM | stabilize TNKS |  | 
CC(C)(C)OC(=O)N1CCN(Cc2ccc(-c3cc4c(Br)cccc4c(=O)[nH]3)cc2)CC1 [IQ-149, 4-[4-(5-Bromo-1-oxo-1,2-dihydro-isoquinolin-3-yl)-benzyl]-piperazine-1-carboxylic acid tert-butyl ester] | < 2 µM |  | < 50 nM |  |  | < 5000 nM
Cc1cc(F)cc2c(=O)[nH]c(-c3ccc(C(=O)N4CCN(C)CC4)cc3)cc12.O=CO [IQ-190] | < 2 µM |  | < 20 nM |  |  | 
